Test results from patent US20260315431A1, “NANOMATERIAL ENCAPSULATED BIOFILM INHIBITORS FOR DENTAL CARIES TREATMENT” (THE UAB RESEARCH FOUNDATION, priority 2023, published 2026).
“Also recorded” adds a separate entry of the source. Marks after values point to notes of the source that are not given here.

What was measured:
S. mutans UA159 = test: Gnotobiotic rat model of dental caries (HA5 / HA6 study, Example 2); assay type: in vivo, Fischer 344 rats infected with S. mutans UA159; design: key to Buccal Mean Caries Scores (±SEM) E / Buccal Mean Caries Scores (±SEM) Ds / Buccal Mean Caries Scores (±SEM) Dm / Buccal Mean Caries Scores (±SEM) Dx / Sulcal Mean Caries Scores (± SEM) E / Sulcal Mean Caries Scores (± SEM) Ds / Sulcal Mean Caries Scores (± SEM) Dm / Sulcal Mean Caries Scores (± SEM) Dx / Proximal Mean Caries Scores (± SEM) E / Proximal Mean Caries Scores (± SEM) Ds: Keyes method caries scores, mean ± SEM; conditions: for effect on bacterial colonization / reduction in caries scores: 4-week treatment, 100 μM; for CFU/mL BAP: Blood agar plate; for CFU/mL BAP / CFU/mL MS / Buccal Mean Caries Scores (±SEM) Dx / Sulcal Mean Caries Scores (± SEM) Dx / Buccal Mean Caries Scores (±SEM) Dm / Sulcal Mean Caries Scores (± SEM) Dm / Buccal Mean Caries Scores (±SEM) Ds / Proximal Mean Caries Scores (± SEM) Ds / Sulcal Mean Caries Scores (± SEM) Ds / Buccal Mean Caries Scores (±SEM) E / Proximal Mean Caries Scores (± SEM) E / Sulcal Mean Caries Scores (± SEM) E: 100 μM (NaF 250 ppm); for CFU/mL MS: Mitis-Salivarius agar; for Buccal Mean Caries Scores (±SEM) Dx / Sulcal Mean Caries Scores (± SEM) Dx: dentinal extensive; for Buccal Mean Caries Scores (±SEM) Dx / Sulcal Mean Caries Scores (± SEM) Dx / Buccal Mean Caries Scores (±SEM) Dm / Sulcal Mean Caries Scores (± SEM) Dm / Buccal Mean Caries Scores (±SEM) Ds / Proximal Mean Caries Scores (± SEM) Ds / Sulcal Mean Caries Scores (± SEM) Ds / Buccal Mean Caries Scores (±SEM) E / Proximal Mean Caries Scores (± SEM) E / Sulcal Mean Caries Scores (± SEM) E: twice daily, 4 weeks, n = 5; for Buccal Mean Caries Scores (±SEM) Dm / Sulcal Mean Caries Scores (± SEM) Dm: dentinal moderate; for Buccal Mean Caries Scores (±SEM) Ds / Proximal Mean Caries Scores (± SEM) Ds / Sulcal Mean Caries Scores (± SEM) Ds: dentinal slight; for Buccal Mean Caries Scores (±SEM) E / Proximal Mean Caries Scores (± SEM) E / Sulcal Mean Caries Scores (± SEM) E: enamel
Experimental: To understand how these compounds affect the residential bacterial community, we conducted an in vivo evaluation of both HA5 and HA6 and compared to the untreated and NaF-treated rats using a well-established gnotobiotic rat model of dental caries^[50-54]. Treatment groups used in this study were inhibitor HA5 (100 μM), inhibitor HA6 (100 μM), and vehicle. A UA159 infection only group served as a negative control and a NaF (250 ppm) served as a positive control.
All rats from the experimental groups and from the control groups were colonized with S. mutans UA159. […] The effect of the treatment on dentinal moderate (Dm) and dentinal extensive (Dx) scores in the proximal area were not recorded as there were no observable caries lesions in both control and the treated groups. The observed reductions in caries scores by HA5 or HA6 were slightly lower than the positive control NaF treatment. However, it should be noted that the concentration of NaF (250 ppm=5.95 mM) is about 59-fold higher than the inhibitor treatment dose of 100 μM.
(§1) We used Fischer 344 rats that were bred and maintained in trexler isolators for this experiment. Male and female rat pups were removed from isolators at 20 days of age and randomly assigned into treatment groups of 5 rats/group in cages with filter tops. Rats were then infected with S. mutans UA159 strain by oral swabbing daily for four consecutive days with a fresh overnight culture of S. mutans UA159. Rats were provided with caries promoting Teklad Diet 305 containing […] (Harlan Laboratories, Inc., Indianapolis, IN) and sterile drinking water ad libitum. Oral swabs were taken 5 days post-infection and plated on Todd Hewitt (TH) agar plates and incubated at 37° C. in an environment of 5% CO2 in the air to confirm colonization. Rats were weighed at weaning and then weekly throughout the experiment. One-week post-infection, the molars of the rats were brushed twice daily for 4 weeks with the test compounds using camel-hair brushes. Four treatment groups used in this study were: 1) HA5 (100 μM); 2) […] (100 μM); 3) NaF (250 ppm); and 4) infected untreated rats. Drinking water was withheld for 60 min following each treatment with the compound. Animals were weighed at weaning and at the termination of the experiment. On day 60, the rats were sacrificed using CO2 followed by cervical dislocation or bilateral thoracotomy. The mandibles were surgically removed and cleaned of excess tissue to assess the level of bacteria present and the extent of caries formation. The right mandible from each rat was placed in a tube containing phosphate buffer (3 mL), placed on ice and sonicated (10 sec) to release bacteria from the molars. Each sample was serially diluted, plated on blood (BAP) and mitis-salivarius (MS) agar plates and incubated in an environment of 5% CO2 in air at 37° C. to quantify the level of total bacteria and S. mutans present in the plaque. The right and left mandibles from each rat were then placed in 95% ethanol for 24 h. The mandibles will be cleaned and stained overnight with murexide solution. After drying, the mandibles were sectioned and scored for caries activity using the Keyes method Caries scores were recorded for the buccal, sulcal and proximal molar surfaces individually so that differences among the surfaces can be distinguished. Statistical significance in the mean caries scores, colony-forming units (CFU)/mandible and body weights between groups of rats were determined by one-way analysis of variance (ANOVA) with the Tukey-Kramer multiple comparison test using the InStat program (GraphPad Prism 10.0.2.). When determining the statistical significance between the two groups, an unpaired t-test was applied. Differences between groups were considered significant at a P-value<0.05.

rat oral microbiome = test: Rat oral microbiome (16S rRNA gene sequencing); assay type: in vivo, Fischer 344 rats; conditions: for overall effect on rat oral microbiome / oral microbiome composition, phylum level: 2-week and 4-week treatment; for oral microbiome composition, phylum level / oral microbiome composition, family level within Firmicutes: 100 μM; for oral microbiome composition, family level within Firmicutes: 4-week treatment; for beta diversity (Bray-Curtis, PERMANOVA): P-value>0.05 vs native community
Experimental: During this study, rat oral microbiome samples were collected from individual rats (n=5) at the following time points: before the experiment (Native), after inoculation of S. mutans and the start of a caries-promoting diet (Sm+CPD), after two weeks of treatment with the compound (2-week), and at the end of the study (END). The microbiota between the groups at different time points was analyzed for oral bacterial composition and abundance. Oral swabs collected before and after interventions with these compounds were analyzed using the 16s rRNA gene sequencing method. Both ‘within’ (alpha diversity) and ‘between’ (beta diversity) sample diversities were calculated over time for each treatment group using MicrobiomeAnalyst 2.0^[55].
as §1
In addition to recording buccal, sulcal and proximal molar surface caries scores and colony-forming units (CFU)/mandible and body weights between groups of rats as described above, plaque samples from rats treated or untreated were collected and DNA was extracted from each sample and used for PCR amplification of ~430 bp amplicons of 16S ribosomal DNA hypervariable regions V3 and V4, Illumina adaptors, and molecular barcodes as described^[66]. […]

[1] = Body weight of animals, HA5 / HA6 study; assay type: in vivo, Fischer 344 rats; conditions: for Weight: 100 μM (NaF 250 ppm); for weight loss: 4-week treatment, 100 μM
Source text: as §1

Compound	effect on bacterial colonization (S. mutans UA159)	reduction in caries scores (S. mutans UA159)	CFU/mL BAP (S. mutans UA159)	CFU/mL MS (S. mutans UA159)	Buccal Mean Caries Scores (±SEM) Dx (S. mutans UA159)	Sulcal Mean Caries Scores (± SEM) Dx (S. mutans UA159)	Buccal Mean Caries Scores (±SEM) Dm (S. mutans UA159)	Sulcal Mean Caries Scores (± SEM) Dm (S. mutans UA159)	Buccal Mean Caries Scores (±SEM) Ds (S. mutans UA159)	Proximal Mean Caries Scores (± SEM) Ds (S. mutans UA159)	Sulcal Mean Caries Scores (± SEM) Ds (S. mutans UA159)	Buccal Mean Caries Scores (±SEM) E (S. mutans UA159)	Proximal Mean Caries Scores (± SEM) E (S. mutans UA159)	Sulcal Mean Caries Scores (± SEM) E (S. mutans UA159)	overall effect on rat oral microbiome (rat oral microbiome)	oral microbiome composition, phylum level (rat oral microbiome)	oral microbiome composition, family level within Firmicutes (rat oral microbiome)	beta diversity (Bray-Curtis, PERMANOVA) (rat oral microbiome)	Weight [1]	weight loss [1]	also measured
O=C1/C(=C/c2cc(O)c(O)cc2O)Oc2ccccc21 [HA5, 2-[(2′,4′,5′-Trihydroxyphenyl)methylidene]-2,3-dihydro-1-benzofuran-3-one]	did not affect bacterial colonization significantly	significant reductions in buccal caries scores; also recorded: can significantly reduce the caries scores in vivo	3.9 ± 1.4 CFU/mL (×10^5)	2.2 ± 0.8 CFU/mL (×10^5)	2.2 ± 0.7	1.0 ± 0.3	3.6 ± 0.4	4.6 ± 0.2	6.6 ± 0.5	0.0 ± 0.0	11.2 ± 0.6	7.8 ± 0.4	1.0 ± 0.3	16.4 ± 2.2	without affecting the rat oral microbiome; also recorded: without perturbing the overall rat oral microbiome significantly; also recorded: do not perturb oral microbiome significantly	did not perturb the overall rat oral microbiome at phylum levels significantly	did not perturb the overall rat oral microbiome significantly within this phylum	without any significant deviations	156 ± 16 g	did not experience significant weight loss	–
O=C1/C(=C/c2cc(O)c(O)c(O)c2)Oc2ccccc21 [HA6, 2-[(3′,4′,5′-Trihydroxyphenyl)methylidene]-2,3-dihydro-1-benzofuran-3-one]	did not affect bacterial colonization significantly	significant reductions in buccal caries scores; also recorded: can significantly reduce the caries scores in vivo	1.9 ± 0.5 CFU/mL (×10^5)	1.3 ± 0.4 CFU/mL (×10^5)	1.2 ± 0.5	1.6 ± 0.4	4.0 ± 0.7	6.4 ± 0.4	6.8 ± 0.5	0.0 ± 0.0	11.2 ± 0.7	8.2 ± 0.7	1.2 ± 0.8	14.6 ± 0.9	without affecting the rat oral microbiome; also recorded: without perturbing the overall rat oral microbiome significantly; also recorded: do not perturb oral microbiome significantly	did not perturb the overall rat oral microbiome at phylum levels significantly	did not perturb the overall rat oral microbiome significantly within this phylum	without any significant deviations	165 ± 13 g	did not experience significant weight loss	–
[F-].[Na+] [NaF, reference compound]	–	–	2.8 ± 0.7 CFU/mL (×10^5)	1.6 ± 0.6 CFU/mL (×10^5)	0.4 ± 0.2	1.6 ± 0.5	1.6 ± 0.5	5.4 ± 0.4	3.2 ± 0.9	0.0 ± 0.0	10.4 ± 0.5	6.2 ± 0.9	0.0 ± 0.0	15.2 ± 0.7	–	–	–	–	145 ± 12 g	–	oral bacterial community after Sm+CPD (beta diversity) (rat oral microbiome; NaF-treated group, PERMANOVA, P-value>0.001 (so in the source)): the community was shifted; abundance of the Streptococcaceae family (rat oral microbiome; second week, not sustained till the end of the study): increase in the abundance of the Streptococcaceae family
